From patent publication US5637591A, “Antimicrobial and anticollagenase activity of phenazine-5, 10-dioxide and derivatives” (Fuji ImmunoPharmaceuticals Corp., priority 1995, dated 1997)
Converted amounts (≈) assume the structure as drawn. Read-outs that look alike come from different tables or passages of the source.

Experiments:
[1] = tested on: Porphyromonas gingivalis 2561; assay: anaerobic liquid culture growth inhibition, OD 650 nm; format: cell-based; settings: Porphyromonas gingivalis, 2561; anaerobic overnight, OD 650 nm; read-out: IC50 Porphyromonas gingivalis 2561
Fusobacterium nucleatum = assay: as above; format: cell-based; settings: anaerobic overnight, OD 650 nm, read-out: IC50 Fusobacterium nucleatum
[2] = tested on: Fusobacterium necrophorum; assay: as above; format: cell-based; settings: anaerobic overnight, OD 650 nm, read-out: IC50 Fusobacterium necrophorum
[3] = format: in vivo; settings: for Other Signs of Toxicity: in vivo
Method: Toxicity was also evaluated in rodents via intravenous (IV) and oral (PO) routes of administration across a range of dose levels.

[4] = tested on: P. gingivalis strain 2561; assay: minimum inhibitory concentration by addition to plating medium; format: cell-based; settings: for MIC: Porphyromonas gingivalis, 2561, 168 h, read-out: P. gingivalis MIC
Method: (§1) Solutions of the agents were tested for activity against Escherichia coli strain DH5α by a zone inhibition method, and against P. gingivalis strain 2561 by addition to plating medium to determine minimum inhibitory concentrations (M/C). For the zone inhibition study, a suspension of E. coli was spread on the surface of an agar plate. A 3 mm diameter paper disk was placed on the seeded agar surface, and 10 μl of solution of each compound formulated at 1 mg/ml was added to the disk. Plates were incubated overnight at 37° C. The radius of the zone of inhibition was measured from the center of the disk to the edge of the E. coli bacterial lawn. For determination of MIC, drug solutions were mixed with plating medium to produce a range of final drug concentrations. Media with drug were plated in the wells of 24-well plates. A drop of bacterial suspension containing 2-5×10^2 CFU P. gingivalis was placed on each well. Plates were incubated 1 week in an anaerobic chamber at 37° C.

[5] = tested on: Porphyromonas gingivalis RB-22D-1; assay: anaerobic liquid culture growth inhibition, OD 650 nm; format: cell-based; settings: RB22D1, anaerobic overnight, OD 650 nm, read-out: IC50 Porphyromonas gingivalis RB-22D-1
Clostridium perfringens = assay: microbe, parasite or virus in culture; format: cell-based; settings: read-out: IC50 Clostridium perfringens
[6] = format: in vivo; settings: for Other Signs of Toxicity: mouse, in vivo, ip
Description: The potential for toxic side effects following systemic administration similar to the method used in the efficacy study was investigated by administering the compound 2-methylphenazine-5,10-dioxide to mice either in single or multiple intraperitoneal (IP) injections.

Bacteroides levii = assay: anaerobic liquid culture growth inhibition, OD 650 nm; format: cell-based; settings: Porphyromonas levii; anaerobic overnight, OD 650 nm; read-out: IC50 Bacteroides levii
[7] = tested on: Peptostreptococcus anaerobius; assay: as above; format: cell-based; settings: anaerobic overnight, OD 650 nm, read-out: IC50 Peptostreptococcus anaerobius
[8] = tested on: Escherichia coli strain DH5α; assay: zone inhibition method on agar plate; format: cell-based; settings: Escherichia coli; 10 μl of 1 mg/ml on 3 mm paper disk, overnight 37° C.; radius from center of disk; read-out: E. coli Clear Zone
Method: as §1

[9] = oral bioavailability in rats (AUC versus intravenous); settings: rat, in vivo, po, Rats, read-out: F
Method: The bioavailibility of orally delivered substituted phenazine-5,10-dioxideswas measured because oral delivery also can comprise systemic administration. The bioavailibility was assessed for the phenazine-5,10-dioxide derivative, 2-aminophenazine-5,10-dioxide administered by oral gavage to rats. Vehicles and dose levels are detailed in Table 9. Calculations of bioavailability (F) following oral administration were made based on area under the curve (AUC) calculations and comparsion with intravenous administration.

Bacteroides fragilis = assay: anaerobic liquid culture growth inhibition, OD 650 nm; format: cell-based; settings: anaerobic overnight, OD 650 nm, read-out: IC50 Bacteroides fragilis

For `Cc1ccc2c(c1)[n+]([O-])c1ccccc1[n+]2[O-]` [2-methylphenazine-5,10-dioxide], which IC50 [1] is on record?
Its IC50 is 0.16 mg/L (≈ 0.707 µM).

What about the IC50 (Fusobacterium nucleatum) of the same molecule?
Its IC50 is greater than 10 mg/L.

And the IC50 [2]?
Its IC50 is 1.5 mg/L (≈ 6.63 µM).

What about the Deaths ([3]; Mice, 5 mg/kg IV, 25% Cremaphor, 1 administration) of the same molecule?
Its Deaths is 0.

And the Deaths ([3]; Mice, 5 mg/kg IV, 30% Encapsin CD, 1 administration)?
The Deaths was 0.

And the Deaths ([3]; Mice, 5 mg/kg IV, 100% DMSO, 1 administration)?
The Deaths was 0.

What about the Deaths ([3]; Mice, 30 mg/kg IV, 10% Cremaphor, 1 administration) of the same molecule?
Its Deaths is 0.

What about the Deaths ([3]; Mice, 40 mg/kg IV, 25% Cremaphor, 1 administration) of the same molecule?
The Deaths was 0.

What about the Deaths ([3]; Mice, 50 mg/kg IV, 30% Encapsin CD, 1 administration) of the same molecule?
Its Deaths is 0.

What about the Deaths ([3]; Mice, 800 mg/kg PO, 100% Cremaphor, 1 administration) of the same molecule?
The Deaths was 0.

And the Deaths ([3]; Mice, 1000 mg/kg PO, 100% Cremaphor, 1 administration)?
Its Deaths is 1/2.

What about the Deaths ([3]; Rats, 5 mg/kg IV, 20% Cremaphor, 1 administration) of the same molecule?
Its Deaths is 0.

And the Deaths ([3]; Rats, 10 mg/kg IV, 25% Encapsin CD/10% DMSO, 1 administration)?
Its Deaths is 0.

And the Deaths ([3]; Rats, 20 mg/kg IV, 30% Encapsin CD, 1 administration)?
The Deaths was 0.

And the Deaths ([3]; Rats, 50 mg/kg PO, 2% Brij 35/Water, 1 administration)?
Its Deaths is 0.

And the Deaths ([3]; Rats, 50 mg/kg PO, 10% Brij 35/Mineral Oil, 1 administration)?
Its Deaths is 0.

And the Deaths ([3]; Rats, 50 mg/kg PO, 10% Brij 35/Water, 1 administration)?
Its Deaths is 0.

And the Deaths ([3]; Rats, 50 mg/kg PO, Water, 1 administration)?
The Deaths was 0.

What about the Deaths ([3]; Rats, 80 mg/kg PO, 10% Cremaphor, 1 administration) of the same molecule?
The Deaths was 0.

And the Deaths ([3]; Rats, 100 mg/kg PO, 2% Brij 35, 1 administration)?
The Deaths was 0.

And the Deaths ([3]; Rats, 100 mg/kg PO, 10% Arlacel 83/Corn Oil, 1 administration)?
Its Deaths is 0.

And the Deaths ([3]; Rats, 100 mg/kg PO, 100% PEG400, 1 administration)?
The Deaths was 0.

And the Deaths ([3]; Rats, 100 mg/kg PO, 110% Encapsin CD, 1 administration)?
The Deaths was 0.

What about the Deaths ([3]; Rats, 200 mg/kg PO, 100% Cremaphor, 1 administration) of the same molecule?
The Deaths was 0.

What about the “Other Signs of Toxicity” value ([3]; mouse, iv, 5 mg/kg) of the same molecule?
The value was “NONE”.

And the “Other Signs of Toxicity” value ([3]; mouse, iv, 30 mg/kg)?
Its value is “NONE”.

And the “Other Signs of Toxicity” value ([3]; mouse, iv, 40 mg/kg)?
Its value is “NONE”.

And the “Other Signs of Toxicity” value ([3]; mouse, iv, 50 mg/kg)?
The value was “Abnormal Clin Obs”.

And the “Other Signs of Toxicity” value ([3]; mouse, po, 800 mg/kg)?
The value was “NONE”.

And the “Other Signs of Toxicity” value ([3]; mouse, po, 1000 mg/kg)?
Its value is “NONE”.

And the “Other Signs of Toxicity” value ([3]; rat, iv, 10 mg/kg)?
Its value is “NONE”.

And the “Other Signs of Toxicity” value ([3]; rat, iv, 20 mg/kg)?
Its value is “NONE”.

What about the “Other Signs of Toxicity” value ([3]; rat, po, 50 mg/kg) of the same molecule?
Its value is “NONE”.

And the “Other Signs of Toxicity” value ([3]; rat, po, 80 mg/kg)?
Its value is “NONE”.

What about the “Other Signs of Toxicity” value ([3]; rat, po, 100 mg/kg) of the same molecule?
The value was “NONE”.

And the “Other Signs of Toxicity” value ([3]; rat, po, 200 mg/kg)?
Its value is “NONE”.

And the MIC ([4]; MIC on a molar basis)?
Its MIC is 0.018 µM.

And the MIC ([4]; complete inhibition of growth, 1 week anaerobic, 37° C.)?
Its MIC is 0.004 mg/L.

What about the “concentration range of activity against P. gingivalis” value ([4]; molar basis) of the same molecule?
Its value is “nanomolar concentration range”.

And the “activity greater than Tetracycline against P. gingivalis” value ([4]; weight-concentration basis)?
Its value is “more than 100 fold”.

And the IC50 [5]?
The IC50 was 0.35 mg/L (≈ 1.55 µM).

And the IC50 (Clostridium perfringens)?
Its IC50 is 1 mg/L (≈ 4.42 µM).

And the Deaths ([6]; mice, 15 mg/kg IP, 2.5% CD, 17 injections)?
The Deaths was 0.

What about the Deaths ([6]; mice, 30 mg/kg IP, DMSO, 15 injections) of the same molecule?
The Deaths was 0.

What about the Deaths ([6]; mice, 60 mg/kg IP, 10% CD, 1 injection) of the same molecule?
Its Deaths is 0.

And the “toxicity” value ([6]; mice, IP, at several times the therapeutic dose)?
The value was “non-toxic”.

And the “Other Signs of Toxicity” value ([6]; 15 mg/kg)?
The value was “NONE”.

And the “Other Signs of Toxicity” value ([6]; 30 mg/kg)?
The value was “NONE”.

And the “Other Signs of Toxicity” value ([6]; 60 mg/kg)?
Its value is “NONE”.

And the IC50 (Bacteroides levii)?
The IC50 was 1 mg/L (≈ 4.42 µM).

What about the IC50 [7] of the same molecule?
The IC50 was 0.2 mg/L (≈ 0.884 µM).

What about the zone of inhibition at 1000 µg/mL [8] of the same molecule?
Its zone of inhibition at 1000 µg/mL is 19 mm.

And the bioavailability ([9]; 80 mg/kg, 80 mg/kg PO, 10% Cremaphor (Table 8 footnote 1))?
Its bioavailability is roughly 2%.

What about the bioavailability ([9]; 100 mg/kg, 100 mg/kg PO, 2% Brij 35 (Table 8 footnote 4)) of the same molecule?
The bioavailability was roughly 100%.

And the bioavailability ([9]; 100 mg/kg, 100 mg/kg PO, 10% Arlacel 83/Corn Oil (Table 8 footnote 3))?
The bioavailability was roughly 37%.

And the bioavailability ([9]; 100 mg/kg, 100 mg/kg PO, 100% PEG400 (Table 8 footnote 2))?
Its bioavailability is roughly 50%.

And the bioavailability ([9]; 100 mg/kg, 100 mg/kg PO, Encapsin CD (Table 8 footnote 2))?
Its bioavailability is roughly 50%.

And the IC50 (Bacteroides fragilis)?
The IC50 was 7 mg/L (≈ 30.9 µM).
